Values of other authors in patent US20030185915A1, “Synergetic composition for the treatment of psoriasis and other skin disorders and method therefor” (priority 2002, published 2003).

Test system: psoriatic arthritis
Details: usually within four to eight weeks

O=C(O)c1cc(/N=N/c2ccc(S(=O)(=O)Nc3ccccn3)cc2)ccc1O [Sulfasalazine]
fraction of PA patients responding rapidly: Approximately one-third
